Experimental data as given in US20240140958A1, “FUSED QUADRACYCLIC COMPOUNDS, COMPOSITIONS AND USES THEREOF” (Tabomedex Biosciences, Inc., priority 2021, published 2024).

Legend:
[1] = tested on: THP-1 cells; assay: THP-1 cell assay: LPS-stimulated pSer78-Hsp27 ELISA; type: cell-based; conditions: Homo sapiens, PMA-differentiated THP-1 cells, compound 60 min before 20 ng/mL LPS for 30 min
Source text: Materials and Reagents for Measuring Activity in THP-1 Cells: • 1) THP-1 cells (Cell bank of Shanghai) • 2) PMA (Sigma, Cat.No. P1585) • 3) LPS (Sigma, Cat.No. L4516) • 4) 96-well tissue-culture treated plate (Grenier, Cat.No. 655180) • 5) FBS (Thermofisher, Cat.No. 10100147) • 6) Complete EDTA-free protease inhibitor Cocktail (Roche, Cat.No. 4693132001) • 7) PhosSTOP (Roche, Cat.No. 4906845001) • 8) Phosphor-Hsp27 (Ser78) Sandwich Elisa kit (CST, Cat.No. 7295)
Cell Assay Procedure: • 1) Day 0: THP-1 cells are seeded at 50K/well in complete media (1640+10% FBS+50 μM β-ME)+20 ng/mL PMA in 96-well plate • 2) Day 1: PMA containing media is removed after 24 h incubation (37° C./5% CO2), and replaced with complete growth media. Cells are incubated an additional 48 h to recover. • 3) Day 3: Cells are incubated with or without compounds at indicated concentrations for 60 min, prior to addition of 20 ng/mL LPS. Cells are stimulated for 30 min with LPS, washed 1× with ice cold PBS, lysed on ice in Lysis buffer provided in ELISA kit with Roche protease & phosphatase inhibitors. Extracts are clarified by refrigerated centrifugation & stored at −80° C. until pHsp27/total Hsp27 ELISAs • 4) Day 3 or Day 4: Cell Signaling Technology ELISA is run for pSer78-Hsp27 on lysates diluted to approximately 2.5 μg/well. • 5) The absorbance at 450 nm was read in a SpectraMax plus plate reader (Molecular Devices). Data was processed using GraphPad prism 8.0.

[2] = biological target: T1, MAPKAPK2 Recombinant Human Protein (Homo sapiens, UniProt P49137); assay: MK2 kinase assay (Z'-LYTE kinase assay kit); conditions: inhibition of MK2 biochemical activity; 90 min incubation at room temperature
T1 construct: purchased ThermoFisher pv3317
T1 sequence (P49137 whole entry): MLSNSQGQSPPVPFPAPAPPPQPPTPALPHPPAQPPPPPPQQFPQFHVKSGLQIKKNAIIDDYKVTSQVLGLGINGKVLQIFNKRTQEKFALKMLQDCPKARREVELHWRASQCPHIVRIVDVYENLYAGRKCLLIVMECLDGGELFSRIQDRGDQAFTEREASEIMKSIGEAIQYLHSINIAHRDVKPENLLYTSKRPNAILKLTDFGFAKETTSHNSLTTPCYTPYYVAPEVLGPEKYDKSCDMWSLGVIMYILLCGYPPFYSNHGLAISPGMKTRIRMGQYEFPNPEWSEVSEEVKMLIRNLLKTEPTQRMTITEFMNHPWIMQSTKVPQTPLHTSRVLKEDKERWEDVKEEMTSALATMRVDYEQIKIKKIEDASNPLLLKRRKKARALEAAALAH
How it was run: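 Z'-LYTE FRET assay with recombinant human MAPKAPK2 and peptide substrate; compound and ATP added, kinase reaction 90 min at room temperature, then development 60 min before stop. Coumarin (445 nm) and fluorescein (520 nm) emissions read at 400 nm excitation.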

SMILES	IC50 [1] [nM]	IC50 [2] [nM]
N#Cc1ccc(-c2cc3n(c2)Cc2cc(N4C[C@H]5CNC[C@H]5C4=O)ccc2-n2ccnc2-3)cc1 (relative stereo) [Example 30, cis-4-(7-(1-oxohexahydropyrrolo[3,4-c]pyrrol-2(1H)-yl)-9H-benzo[e]imidazo [2,1-c]pyrrolo[1,2-a][1,4]diazepin-12-yl)benzonitrile]	200 to 300	50 to 100
CN(C)[C@H]1C[C@@H](N2CCN(c3ccc4c(c3)Cn3cc(-c5ccc(C#N)cc5)cc3-c3nccn3-4)C2=O)C1 [Example 59]	50 to 100	< 50
CC1(C)CCN1C[C@@H]1CN(c2ccc3c(c2)Cn2cc(-c4ccc(C#N)cc4)cc2-c2nccn2-3)C(=O)O1 [Example 6, (R)-4-(7-(5-((2,2-Dimethylazetidin-1-yl)methyl)-2-oxooxazolidin-3-yl)-9H-benzo[e]imidazo[2,1-c]pyrrolo[1,2-a][1,4]diazepin-12-yl)benzonitrile]	< 50	< 50
CN(C)C[C@@H]1CC(=O)N(c2ccc3c(c2)Cn2cc(-c4ccc(C#N)cc4)cc2-c2nccn2-3)C1 [Example 17, (S)-4-(7-(4-((Dimethylamino)methyl)-2-oxopyrrolidin-1-yl)-9H-benzo[e]imidazo[2,1-c]pyrrolo[1,2-a][1,4]diazepin-12-yl)benzonitrile]	200 to 300	50 to 100
CN(C)CC[C@@H]1CCN(c2ccc3c(c2)Cn2cc(-c4ccc(C#N)cc4)cc2-c2nccn2-3)C1=O (single isomer, unassigned) [Example 42]	< 50	< 50
CN(C)C(C)(C)[C@H]1CC(=O)N(c2ccc3c(c2)Cn2cc(-c4ccc(C#N)cc4)cc2-c2nccn2-3)C1 [Example 54]	< 50	< 50
CN(C)C[C@H]1CC(=O)N(c2ccc3c(c2)Cn2cc(-c4ccc(C#N)cc4)cc2-c2nccn2-3)C1 [Example 7, (R)-4-(7-(4-((Dimethylamino)methyl)-2-oxopyrrolidin-1-yl)-9H-benzo[e]imidazo[2,1-c]pyrrolo[1,2-a][1,4]diazepin-12-yl)benzonitrile]	< 50	< 50
CN(C)[C@H]1CCN(c2ccc3c(c2)Cn2cc(-c4ccc(C#N)cc4)cc2-c2nccn2-3)C1=O [Example 25, (S)-4-(7-(3-(Dimethylamino)-2-oxopyrrolidin-1-yl)-9H-benzo[e]imidazo [2,1-c]pyrrolo[1,2-a][1,4]diazepin-12-yl)benzonitrile]	300 to 400	50 to 100
CN1CC(N2CCN(c3ccc4c(c3)Cn3cc(-c5ccc(C#N)cc5)cc3-c3nccn3-4)C2=O)C1 [Example 58, 4-(7-(3-(1-Methylazetidin-3-yl)-2-oxoimidazolidin-1-yl)-9H-benzo[e]imidazo[2,1-c]pyrrolo[1,2-a][1,4]diazepin-12-yl)benzonitrile]	< 50	< 50
N#Cc1ccc(-c2cc3n(c2)Cc2cc(N4C[C@@H](CN5CC(O)C5)CC4=O)ccc2-n2ccnc2-3)cc1 [Example 29]	50 to 100	< 50
CN(C)CCn1cnn(-c2ccc3c(c2)Cn2cc(-c4ccc(C#N)cc4)cc2-c2nccn2-3)c1=O [Example 79, 4-(7-(4-(2-(Dimethylamino)ethyl)-5-oxo-4,5-dihydro-1H-1,2,4-triazol-1-yl)-9H-benzo[e]imidazo[2,1-c]pyrrolo[1,2-a][1,4]diazepin-12-yl)benzonitrile]	100 to 200	50 to 100
CC(C)NC[C@H]1CC(=O)N(c2ccc3c(c2)Cn2cc(-c4ccc(C#N)cc4)cc2-c2nccn2-3)C1 [Example 12]	100 to 200	< 50
CN(CCO)C[C@H]1CCN(c2ccc3c(c2)Cn2cc(-c4ccc(F)cc4)cc2-c2nccn2-3)C1=O [Example 90, (R)-1-(12-(4-Fluorophenyl)-9H-benzo[e]imidazo[2,1-c]pyrrolo[1,2-a][1,4]diazepin-7-yl)-3-(((2-hydroxyethyl)(methyl)amino)methyl)pyrrolidin-2-one]	50 to 100	< 50
CN1CC2(CC(=O)N(c3ccc4c(c3)Cn3cc(-c5ccc(C#N)cc5)cc3-c3nccn3-4)C2)C1 [Example 23, 4-(7-(2-Methyl-7-oxo-2,6-diazaspiro[3.4]octan-6-yl)-9H-benzo[e]imidazo [2,1-c]pyrrolo[1,2-a][1,4]diazepin-12-yl)benzonitrile]	200 to 300	< 50
CN(C)CCNC(=O)c1ccc2c(c1)Cn1cc(-c3ccc(C#N)cc3)cc1-c1nccn1-2 [Example 101, 12-(4-Cyanophenyl)-N-(2-(dimethylamino)ethyl)-9H-benzo[e]imidazo[2,1-c]pyrrolo[1,2-a][1,4]diazepine-7-carboxamide]	100 to 200	50 to 100
CN1CC(N2C(=O)CN(c3ccc4c(c3)Cn3cc(-c5ccc(C#N)cc5)cc3-c3nccn3-4)C2=O)C1 [Example 69]	< 50	< 50
CN(C)CCn1ccn(-c2ccc3c(c2)Cn2cc(-c4ccc(C#N)cc4)cc2-c2nccn2-3)c1=O [Example 70, 4-(7-(3-(2-(Dimethylamino)ethyl)-2-oxo-2,3-dihydro-1H-imidazol-1-yl)-9H-benzo[e]imidazo[2,1-c]pyrrolo[1,2-a][1,4]diazepin-12-yl)benzonitrile]	500 to 1000	< 50
CC(C)(C1CC(=O)N(c2ccc3c(c2)Cn2cc(-c4ccc(C#N)cc4)cc2-c2nccn2-3)C1)N1CCC1 (stereo not shown) [Example 55, 4-(7-(4-(2-(Azetidin-1-yl)propan-2-yl)-2-oxopyrrolidin-1-yl)-9H-benzo[e]imidazo[2,1-c]pyrrolo[1,2-a][1,4]diazepin-12-yl)benzonitrile]	< 50	< 50
CN(C)CC1CN(C(=O)c2ccc3c(c2)Cn2cc(-c4ccc(C#N)cc4)cc2-c2nccn2-3)C1 [Example 117]	500 to 1000	50 to 100
CN(C)C[C@H]1C[C@@]12CCN(c1ccc3c(c1)Cn1cc(-c4ccc(C#N)cc4)cc1-c1nccn1-3)C2=O [Example 48, 4-(7-((1S,3R)-1-((dimethylamino)methyl)-4-oxo-5-azaspiro[2.4]heptan-5-yl)-9H-benzo[e]imidazo[2,1-c]pyrrolo[1,2-a][1,4]diazepin-12-yl)benzonitrile]	200 to 300	50 to 100
CN(C)CC1(C)CC(=O)N(c2ccc3c(c2)Cn2cc(-c4ccc(C#N)cc4)cc2-c2nccn2-3)C1 (stereo not shown) [Example 33, 4-(7-(4-((Dimethylamino)methyl)-4-methyl-2-oxopyrrolidin-1-yl)-9H-benzo [e]imidazo[2,1-c]pyrrolo[1,2-a][1,4]diazepin-12-yl)benzonitrile]	400 to 500	< 50
[2H]C([2H])([2H])N(CC1CCN(c2ccc3c(c2)Cn2cc(-c4ccc(C#N)cc4)cc2-c2nnc(C)n2-3)C1=O)C([2H])([2H])[2H] (stereo not shown) [Example 86, 4-(7-(3-((Bis(methyl-d3)amino)methyl)-2-oxopyrrolidin-1-yl)-3-methyl-9H-benzo [e]pyrrolo[1,2-a][1,2,4]triazolo[3,4-c][1,4]diazepin-12-yl)benzonitrile]	300 to 400	< 50
CNC[C@@H]1CN(c2ccc3c(c2)Cn2cc(-c4ccc(C#N)cc4)cc2-c2nccn2-3)C(=O)O1 [Example 3]	< 50	< 50
CC(C)(C)NC[C@H]1CC(=O)N(c2ccc3c(c2)Cn2cc(-c4ccc(C#N)cc4)cc2-c2nccn2-3)C1 [Example 13]	100 to 200	< 50
CN(C)C[C@H]1CC(=O)N(c2ccc3c(c2)Cn2cc(-c4ccc(C#N)cc4)cc2-c2ncnn2-3)C1 [Example 87, (R)-4-(7-(4-((Dimethylamino)methyl)-2-oxopyrrolidin-1-yl)-9H-benzo[e]pyrrolo [1,2-a][1,2,4]triazolo[5,1-c][1,4]diazepin-12-yl)benzonitrile]	100 to 200	< 50
CN(C)CC1CC(=O)N(c2cc3c(cc2F)-n2ccnc2-c2cc(-c4ccc(C#N)cc4)cn2C3)C1 (stereo in doubt) [Example 91]	300 to 400	50 to 100
N#Cc1ccc(-c2cc3n(c2)Cc2cc(N4C[C@@H](CN5CCC5)CC4=O)ccc2-n2ccnc2-3)cc1 [Example 27]	< 50	< 50
N#Cc1ccc(-c2cc3n(c2)Cc2cc(N4C[C@@H](C5(N)CC5)CC4=O)ccc2-n2ccnc2-3)cc1 [Example 50]	50 to 100	< 50
CC(C)(N)C[C@H]1CCN(c2ccc3c(c2)Cn2cc(-c4ccc(C#N)cc4)cc2-c2nccn2-3)C1=O [Example 43, (R)-4-(7-(3-(2-Amino-2-methylpropyl)-2-oxopyrrolidin-1-yl)-9H-benzo[e]imidazo[2,1-c]pyrrolo[1,2-a][1,4]diazepin-12-yl)benzonitrile]	300 to 400	< 50
